{"source": "patent US20200289554A1", "about": "“BIOORTHOGONAL COMPOUNDS COMPRISING A PROPARGYL GROUP FOR TREATING CANCER” (THE UNIVERSITY COURT OF THE UNIVERSITY OF EDINBURGH, priority 2016, published 2020)", "key": {"A549 cells [1]": {"system": "A549 cells", "assay": "BOOM conversion: prodrug + metal resins in cell culture, cell viability, A549", "type": "cell-based, human", "details": "Pd0-resin 1 mg/mL, 100 μM Vorinostat prodrugs, 1 μM Doxorubicin prodrugs, 0.3 μM Panobinostat prodrug", "experimental": "Cell viabilities for each prodrug provided as a combination with palladium is presented in FIG. 3 and gold is presented in FIG. 33 in the right of each set of two bars. […] Cells were incubated in tissue culture media containing 0.1% (v/v) DMSO and: Pd^0, Au, or Pd/Au-resins (1 mg/mL, negative control); 100 μM of each prodrug (negative control); and Pd^0, Au, or Pd/Au-resins (1 mg/mL)+100 μM of each prodrug (BOOM reaction assay). Cells incubated in 0.1% (v/v) DMSO in media were used as untreated cell control.\n(§1) Following 5 days treatment, cells were incubated with PrestoBlue™ Cell Viability Reagent (Life Technologies) for 60-90 min. Fluorescence intensity values were related to the untreated cells (100% cell viability). […] Cells incubated in 0.1% (v/v) DMSO in media were used as untreated cell control.\n(§2) Cell viabilities for each prodrug provided as a combination with palladium is presented in FIG. 7 in the right of each set of two bars. Data for prodrug in the absence of palladium catalyst is also provided (the left bar of each set of two bars) for comparison along with negative controls (from left to right: DMSO, Pd^0 and Doxorubicin). Cells were incubated in tissue culture media containing 0.1% (v/v) DMSO and: Pd^0-resins (1 mg/mL, negative control); 1 μM of each prodrug (negative control); and Pd^0-resins (1 mg/mL)+1 μM of each prodrug (BOOM reaction assay). Cells incubated in 0.1% (v/v) DMSO in media were used as untreated cell control.\n(§3) Following 5 days treatment, cells were incubated with PrestoBlue™ Cell Viability Reagent (Life Technologies) for 90 min. Fluorescence intensity values were related to the untreated cells (100% cell viability). Data are provided in FIG. 8 for cells incubated in tissue culture media containing 0.1% (v/v) DMSO and: Pd^0-resins (1 mg/mL, negative control); 0.3-3 μM of Doxorubicin prodrug for A549 and DU145 cell lines, 0.1-1 μM of Doxorubicin prodrug for T98 cell line (negative control); 0.3-3 μM of Doxorubicin for A549 and DU145 cell lines, 0.1-1 μM of Doxorubicin for T98 cell line (positive control); and Pd^0-resin (1 mg/mL)+Doxorubicin prodrug (BOOM reaction assay). Cells incubated in 0.1% (v/v) DMSO in media were used as untreated cell control.\nas §2, with “21” for “7”, “panobinostat).” for “Doxorubicin).”\n(§4) The toxigenic effect as a result of in situ generation of parental drug in cell culture was determined by incubating all cells in tissue culture media containing 0.1% (v/v) DMSO and a) Pd^0, Au, or Pd/Au-resin (1 mg/mL for all cells tested, negative control); b) prodrug (negative control); or c) Pd^0, Au, or Pd/Au-resin (1 mg/mL for all cells)+prodrug (reaction assay). Cells incubated in 0.1% (v/v) DMSO in media was used as an untreated cell reference standard (100% viability). A PrestoBlue® cell viability assay as described above was carried out and fluorescent intensities compared to the untreated cell control.\n(§5) A dose response study was performed for each cell line keeping the quantity of Pd^0 resin constant (0.8 mg/mL for U87G and 1 mg/mL for the rest of cell lines). All cells were plated in Dulbecco's Modified Eagle Media (DMEM) supplemented with serum (10% FBS) and L-glutamine (2 mM). […]"}, "A549 cells [2]": {"system": "A549 cells", "assay": "Prodrug safety dose-response cell viability (PrestoBlue), A549", "type": "cell-based", "details": "Homo sapiens, 120 h, 5 days, no catalyst", "experimental": "(§6) These cell lines were selected as these are primary malignancies against which the parental drugs are currently prescribed.\n(§7) The toxicities of each active agent and prodrugs were compared by performing dose-response studies. […] Cell viability was analysed by fluoresce intensity (λex=540 nm; λem=590 nm) after 60-90 min incubation with PrestoBlue™ Reagent (Life Technologies)."}, "U87G cells": {"system": "U87G cells", "assay": "Prodrug safety dose-response cell viability (PrestoBlue), U87G", "type": "cell-based, human", "details": "U87G cells, 5 days, no catalyst, read-out: EC50 (cell viability)", "experimental": "as §6, §7"}, "T98 cells [3]": {"system": "T98 cells", "assay": "Prodrug safety dose-response cell viability (PrestoBlue), T98", "type": "cell-based", "details": "Homo sapiens, 120 h, 5 days, no catalyst", "experimental": "as §6, §7"}, "T98 cells [4]": {"system": "T98 cells", "assay": "BOOM conversion: prodrug + Pd0-resins in cell culture, cell viability, T98", "type": "cell-based, human", "details": "Pd0-resin 1 mg/mL, 1 μM Doxorubicin prodrugs", "experimental": "as §1, §2, §3, §4, §5"}, "DU145 cells": {"system": "DU145 cells", "assay": "BOOM conversion: prodrug + Pd0-resins in cell culture, cell viability, DU145", "type": "cell-based, human", "details": "Pd0-resin 1 mg/mL, 1 μM Doxorubicin prodrugs", "experimental": "as §2\nas §3, with “Cells incubated in 0.1% (v/v) DMSO in media were used as untreated cell control.” left out\nThe toxigenic effect as a result of in situ generation of parental drug in cell culture was determined by incubating all cells in tissue culture media containing 0.1% (v/v) DMSO and a) Pd^0, Au, or Pd/Au-resin (1 mg/mL for all cells tested, negative control); b) prodrug (negative control); or c) Pd^0, Au, or Pd/Au-resin (1 mg/mL for all cells)+prodrug (reaction assay). […]\n(§8) A dose response study was performed for each cell line keeping the quantity of Pd^0 resin constant (0.8 mg/mL for U87G and 1 mg/mL for the rest of cell lines). […] Fluorescence intensity values (detected using a PerkinElmer EnVision 2101 multilabel reader with excitation filter at 540 nm and emissions filter at 590 nm) were determined relative to the untreated cell control."}, "MiaPaCa2 cells [5]": {"system": "MiaPaCa2 cells", "assay": "BOOM conversion: prodrug + Pd0-resins in cell culture, cell viability, MiaPaCa2", "type": "cell-based, human", "details": "Pd0-resin 1 mg/mL, 0.03 μM Gemcitabine prodrugs", "experimental": "as §2, with “FIG. 10” for “FIG. 7”, “and Gemcitabine).” for “and Doxorubicin).”, “control); 0.03” for “control); 1”, “(1 mg/mL)+0.03” for “(1 mg/mL)+1”\nFollowing 5 days treatment, cells were incubated with PrestoBlue™ Cell Viability Reagent (Life Technologies) for 90 min. Fluorescence intensity values were related to the untreated cells (100% cell viability). Data are provided in FIG. 11 for cells incubated in tissue culture media containing 0.1% (v/v) DMSO and: Pd^0-resins (1 mg/mL, negative control); 0.003-0.3 μM of pPOBC-Gem (negative control); 0.003-0.3 μM of Gemcitabine (positive control); and Pd^0-resin (1 mg/mL)+pPOBC-Gem (BOOM reaction assay). Cells incubated in 0.1% (v/v) DMSO in media were used as untreated cell control.\nThe toxigenic effect as a result of in situ generation of parental drug in cell culture was determined by incubating all cells in tissue culture media containing 0.1% (v/v) DMSO and a) Pd^0, Au, or Pd/Au-resin (1 mg/mL for all cells tested, negative control); b) prodrug (negative control); or c) Pd^0, Au, or Pd/Au-resin (1 mg/mL for all cells)+prodrug (reaction assay). Cells incubated in 0.1% (v/v) DMSO in media was used as an untreated cell reference standard (100% viability). […]\nas §8"}, "MiaPaCa2 cells [6]": {"system": "MiaPaCa2 cells", "assay": "Prodrug safety dose-response cell viability (PrestoBlue), MiaPaCa2", "type": "cell-based, human", "details": "Homo sapiens, MIA PaCa-2, 120 h, 5 days, no catalyst", "experimental": "as §6, §7"}}, "note": "pEC50: −log10 of the molar value. Like-named read-outs stand apart in the source and are kept apart here."}
{"molecule": "O=C(CCCCCCC(=O)Nc1ccccc1)NOCc1ccccc1", "note": "[Benzyl-Vor, Benzyl-Vorinostat]", "values": [{"measurement": "toxigenic effect of prodrug + Pd0 resins", "setting": "A549 cells [1]", "value": "only low levels of toxicity"}, {"measurement": "pEC50", "setting": "A549 cells [2]", "value": "< 3.30"}, {"measurement": "pEC50", "setting": "U87G cells; Homo sapiens, 120 h", "value": "< 3.30"}, {"measurement": "pEC50", "setting": "T98 cells [3]", "value": "< 3.30"}]}
{"molecule": "COc1cccc2c1C(=O)c1c(O)c3c(c(O)c1C2=O)C[C@@](O)(C(=O)CO)C[C@@H]3OC1C[C@H](NC(=O)OCc2ccccc2)[C@H](O)[C@H](C)O1", "note": "(stereo partly shown) [Cbz-Dox, Carboxybenzyl Doxorubicin]", "values": [{"measurement": "toxigenic effect of prodrug + Pd0 resins", "setting": "T98 cells [4]", "value": "only low levels of toxicity"}, {"measurement": "toxigenic effect of prodrug + Pd0 resins", "setting": "DU145 cells", "value": "only low levels of toxicity"}, {"measurement": "toxigenic effect of prodrug + Pd0 resins", "setting": "A549 cells [1]", "value": "only low levels of toxicity"}]}
{"molecule": "O=C(Nc1ccn(C2OC(CO)C(O)C2(F)F)c(=O)n1)OCc1ccccc1", "note": "(stereo not shown) [Cbz-Gem, reference compound]", "values": [{"measurement": "toxigenic effect of prodrug + Pd0 resins", "setting": "MiaPaCa2 cells [5]", "value": "only low levels of toxicity"}]}
{"molecule": "COc1cc([C@@H]2c3cc4c(cc3[C@@H](O[C@@H]3O[C@@H]5CO[C@@H](C)O[C@H]5[C@H](O)[C@H]3O)[C@H]3COC(=O)[C@H]23)OCO4)cc(OC)c1O", "note": "[Etoposide, reference compound]", "values": [{"measurement": "pEC50", "setting": "U87G cells; Homo sapiens, 120 h", "value": 5.30}]}
{"molecule": "Nc1ccn([C@@H]2O[C@H](CO)[C@@H](O)C2(F)F)c(=O)n1", "note": "[Gemcitabine, reference compound]", "values": [{"measurement": "pEC50", "setting": "MiaPaCa2 cells [6]", "value": 7.89}]}
{"molecule": "C#CCOc1ccc(CONC(=O)/C=C/c2ccc(CNCCc3c(C)[nH]c4ccccc34)cc2)cc1", "note": "[POB-Panob, Propargyloxybenzyl-Panobinostat]", "values": [{"measurement": "toxigenic effect of prodrug + Pd0 resins", "setting": "A549 cells [1]", "value": "strong toxigenic effect"}, {"measurement": "pEC50", "setting": "A549 cells [2]", "value": 6.12}]}
{"molecule": "Cc1[nH]c2ccccc2c1CCNCc1ccc(/C=C/C(=O)NO)cc1", "note": "[Panobinostat, reference compound]", "values": [{"measurement": "pEC50", "setting": "A549 cells [2]", "value": 7.80}]}
{"molecule": "CCc1c2c(nc3ccc(O)cc13)-c1cc3c(c(=O)n1C2)COC(=O)[C@]3(O)CC", "note": "[SN-38, 10-Hydroxy-7-ethylcamptothecin, reference compound]", "values": [{"measurement": "pEC50", "setting": "U87G cells", "value": 7.61}]}
{"molecule": "O=C(CCCCCCC(=O)Nc1ccccc1)NO", "note": "[Vorinostat, reference compound]", "values": [{"measurement": "pEC50", "setting": "A549 cells [2]", "value": 5.31}, {"measurement": "pEC50", "setting": "T98 cells [3]", "value": 4.91}]}
{"molecule": "C#CCOc1ccccc1COC(=O)N[C@H]1CC(O[C@H]2C[C@](O)(C(=O)CO)Cc3c(O)c4c(c(O)c32)C(=O)c2c(OC)cccc2C4=O)O[C@@H](C)[C@H]1O", "note": "(stereo partly shown) [oPOBC-Dox, 2-proparglyoxybenzylcarbamoyl Doxorubicin]", "values": [{"measurement": "toxigenic effect of prodrug + Pd0 resins", "setting": "T98 cells [4]", "value": "strong toxigenic effect"}, {"measurement": "toxigenic effect of prodrug + Pd0 resins", "setting": "DU145 cells", "value": "strong toxigenic effect"}, {"measurement": "toxigenic effect of prodrug + Pd0 resins", "setting": "A549 cells [1]", "value": "strong toxigenic effect"}]}
{"molecule": "C#CCOc1ccc(COC(=O)N[C@H]2CC(O[C@H]3C[C@](O)(C(=O)CO)Cc4c(O)c5c(c(O)c43)C(=O)c3c(OC)cccc3C5=O)O[C@@H](C)[C@H]2O)cc1", "note": "(stereo partly shown) [pPOBC-Dox, 4-proparglyoxybenzylcarbamoyl Doxorubicin]", "values": [{"measurement": "toxigenic effect of prodrug + Pd0 resins", "setting": "T98 cells [4]", "value": "strong toxigenic effect"}, {"measurement": "toxigenic effect of prodrug + Pd0 resins", "setting": "DU145 cells", "value": "strong toxigenic effect"}, {"measurement": "toxigenic effect of prodrug + Pd0 resins", "setting": "A549 cells [1]", "value": "strong toxigenic effect"}]}
